# Source: ChEMBL document CHEMBL1201862, “PubChem BioAssay data set” (2004)
#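 Protocol summary: plate cells (96-well), add compound at 5 concentrations, incubate 48 h, interpolate endpoints linearly. Here, GI50 denotes the concentration required for 50% inhibition of growth.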 The source made the active and inactive calls. No stated cut-off is given here; in the data, active = GI50 up to about 1.1 µM and inactive = higher.
# Key:
# Assay in all cases: growth of human tumour cells (NCI), 48 h
# [1] = tested on: 786-0
# [2] = tested on: A498
# [3] = tested on: A549
# [4] = tested on: ACHN
# [5] = tested on: BT-549
# [6] = tested on: CAKI-1
# [7] = tested on: CCRF-CEM
# [8] = tested on: COLO 205
# [9] = tested on: DU-145
# [10] = tested on: EKVX
# [11] = tested on: HCC 2998
# [12] = tested on: HCT-116
# [13] = tested on: HCT-15
# [14] = tested on: HL-60
# [15] = tested on: HOP-62
# [16] = tested on: HOP-92
# [17] = tested on: HT-29
# [18] = tested on: Hs-578T
# [19] = tested on: IGROV-1
# [20] = tested on: K562
# [21] = tested on: KM12
# [22] = tested on: LOX IMVI
# [23] = tested on: M14
# [24] = tested on: MCF7
# [25] = tested on: MDA-MB-231
# [26] = tested on: MDA-MB-435
# [27] = tested on: MDA-N
# [28] = tested on: MOLT-4
# [29] = tested on: Malme-3M
# [30] = tested on: NCI-H23
# [31] = tested on: NCI-H460
# [32] = tested on: NCI-H522
# [33] = tested on: NCI/ADR-RES
# [34] = tested on: OVCAR-3
# [35] = tested on: OVCAR-4
# [36] = tested on: OVCAR-5
# [37] = tested on: OVCAR-8
# [38] = tested on: PC-3
# [39] = tested on: RPMI-8226
# [40] = tested on: RXF 393
# [41] = tested on: SF-268
# [42] = tested on: SF-295
# [43] = tested on: SF-539
# [44] = tested on: SK-MEL-28
# [45] = tested on: SK-MEL-2
# [46] = tested on: SK-MEL-5
# [47] = tested on: SK-OV-3
# [48] = tested on: SN12C
# [49] = tested on: SNB-19
# [50] = tested on: SNB-75
# [51] = tested on: SR
# [52] = tested on: SW-620
# [53] = tested on: T47D
# [54] = tested on: TK-10
# [55] = tested on: U-251
# [56] = tested on: UACC-257
# [57] = tested on: UACC-62
# [58] = tested on: UO-31
# [59] = tested on: NCI-H226
structure (smiles),measurement,setting,value
CC(C)(O)CO/N=C1\C(=C2\C(=O)Nc3ccccc32)Nc2ccccc21,GI50,[1],10.7 µM (inactive)
same,GI50,[2],0.187 µM (active)
same,GI50,[3],0.724 µM (active)
same,GI50,[4],0.426 µM (active)
same,GI50,[5],1.82 µM (inactive)
same,GI50,[6],0.112 µM (active)
same,GI50,[7],0.435 µM (active)
same,GI50,[8],0.615 µM (active)
same,GI50,[9],0.476 µM (active)
same,GI50,[10],1.65 µM (inactive)
same,GI50,[11],0.991 µM (active)
same,GI50,[12],6.28 µM (inactive)
same,GI50,[13],0.324 µM
same,GI50,[14],0.74 µM (active)
same,GI50,[15],2.1 µM (inactive)
same,GI50,[16],3.48 µM (inactive)
same,GI50,[17],1.75 µM (inactive)
same,GI50,[18],0.867 µM (active)
same,GI50,[19],0.0895 µM (active)
same,GI50,[20],5.86 µM (inactive)
same,GI50,[21],< 0.01 µM (active)
same,GI50,[22],0.583 µM (active)
same,GI50,[23],0.474 µM (active)
same,GI50,[24],1.39 µM (inactive)
same,GI50,[25],2.01 µM (inactive)
same,GI50,[26],0.794 µM (active)
same,GI50,[27],12.2 µM (inactive)
same,GI50,[28],0.944 µM (active)
same,GI50,[29],4.3 µM (inactive)
same,GI50,[30],1.18 µM (inactive)
same,GI50,[31],0.395 µM (active)
same,GI50,[32],1.87 µM (inactive)
same,GI50,[33],1.33 µM (inactive)
same,GI50,[34],1.32 µM (inactive)
same,GI50,[35],2.94 µM (inactive)
same,GI50,[36],2.61 µM (inactive)
same,GI50,[37],1.15 µM (inactive)
same,GI50,[38],0.883 µM (active)
same,GI50,[39],1.97 µM (inactive)
same,GI50,[40],0.279 µM (active)
same,GI50,[41],2.33 µM (inactive)
same,GI50,[42],2.52 µM (inactive)
same,GI50,[43],2.71 µM (inactive)
same,GI50,[44],2.38 µM (inactive)
same,GI50,[45],0.232 µM (active)
same,GI50,[46],0.423 µM (active)
same,GI50,[47],0.158 µM (active)
same,GI50,[48],12 µM (inactive)
same,GI50,[49],4.24 µM (inactive)
same,GI50,[50],0.811 µM (active)
same,GI50,[51],0.594 µM (active)
same,GI50,[52],0.811 µM (active)
same,GI50,[53],0.631 µM (active)
same,GI50,[54],0.601 µM (active)
same,GI50,[55],2.38 µM (inactive)
same,GI50,[56],4.49 µM (inactive)
same,GI50,[57],0.728 µM (active)
same,GI50,[58],0.348 µM (active)
Cc1nnc(N)nc1/C=C/c1c(O)ccc2ccccc12,GI50,[1],32.4 µM (inactive)
same,GI50,[2],21.3 µM (inactive)
same,GI50,[3],34 µM (inactive)
same,GI50,[4],13.1 µM (inactive)
same,GI50,[5],37.9 µM (inactive)
same,GI50,[6],36.4 µM (inactive)
same,GI50,[7],15.5 µM (inactive)
same,GI50,[8],44.4 µM (inactive)
same,GI50,[9],52.8 µM (inactive)
same,GI50,[10],13.9 µM (inactive)
same,GI50,[11],19.1 µM (inactive)
same,GI50,[12],30.8 µM (inactive)
same,GI50,[13],17.3 µM
same,GI50,[14],28.2 µM (inactive)
same,GI50,[15],33.9 µM (inactive)
same,GI50,[16],21.3 µM (inactive)
same,GI50,[17],27 µM (inactive)
same,GI50,[18],26.2 µM (inactive)
same,GI50,[19],13.7 µM (inactive)
same,GI50,[20],38.5 µM (inactive)
same,GI50,[21],34.5 µM (inactive)
same,GI50,[22],34.3 µM (inactive)
same,GI50,[23],19.4 µM (inactive)
same,GI50,[24],32.8 µM (inactive)
same,GI50,[25],> 100 µM (inactive)
same,GI50,[26],24.7 µM (inactive)
same,GI50,[27],28.9 µM (inactive)
same,GI50,[28],22.5 µM (inactive)
same,GI50,[59],21.5 µM (inactive)
same,GI50,[30],24.8 µM (inactive)
same,GI50,[31],24.5 µM (inactive)
same,GI50,[33],30.8 µM (inactive)
same,GI50,[35],20 µM (inactive)
same,GI50,[36],26.5 µM (inactive)
same,GI50,[37],35.2 µM (inactive)
same,GI50,[38],22.8 µM (inactive)
same,GI50,[39],30.5 µM (inactive)
same,GI50,[40],15.6 µM (inactive)
same,GI50,[41],28.7 µM (inactive)
same,GI50,[42],18.6 µM (inactive)
same,GI50,[44],29.7 µM (inactive)
same,GI50,[45],15.2 µM (inactive)
same,GI50,[46],25.7 µM (inactive)
same,GI50,[47],27.5 µM (inactive)
same,GI50,[48],37.5 µM (inactive)
same,GI50,[49],27 µM (inactive)
same,GI50,[51],44.4 µM (inactive)
same,GI50,[52],31.6 µM (inactive)
same,GI50,[53],36.7 µM (inactive)
same,GI50,[54],54.8 µM (inactive)
same,GI50,[55],38.7 µM (inactive)
same,GI50,[56],32.2 µM (inactive)
same,GI50,[57],21.5 µM (inactive)
same,GI50,[58],18.8 µM (inactive)
Cc1ccc(S(=O)(=O)NN=C2C(C)CC(C(C)(C)C)CC2C)cc1 (configuration not stated),GI50,[1],17.4 µM (inactive)
same,GI50,[2],17.4 µM (inactive)
same,GI50,[3],17.9 µM (inactive)
same,GI50,[5],17.9 µM (inactive)
same,GI50,[6],16.9 µM (inactive)
same,GI50,[7],20 µM (inactive)
same,GI50,[8],18.4 µM (inactive)
same,GI50,[9],19.7 µM (inactive)
same,GI50,[11],17.7 µM (inactive)
same,GI50,[12],17.5 µM (inactive)
same,GI50,[13],18.2 µM
same,GI50,[14],25.9 µM (inactive)
same,GI50,[15],16.4 µM (inactive)
same,GI50,[16],15.5 µM (inactive)
same,GI50,[17],18.5 µM (inactive)
same,GI50,[18],37.2 µM (inactive)
same,GI50,[19],38.9 µM (inactive)
same,GI50,[20],21 µM (inactive)
same,GI50,[21],17.6 µM (inactive)
same,GI50,[22],17.9 µM (inactive)
same,GI50,[23],13.5 µM (inactive)
same,GI50,[24],21.1 µM (inactive)
same,GI50,[25],28.6 µM (inactive)
same,GI50,[26],20 µM (inactive)
same,GI50,[27],19.3 µM (inactive)
same,GI50,[28],20.6 µM (inactive)
same,GI50,[29],17.8 µM (inactive)
same,GI50,[59],19 µM (inactive)
same,GI50,[30],24.4 µM (inactive)
same,GI50,[31],18.8 µM (inactive)
same,GI50,[32],18.6 µM (inactive)
same,GI50,[33],31.6 µM (inactive)
same,GI50,[34],16.6 µM (inactive)
same,GI50,[35],14.9 µM (inactive)
same,GI50,[36],17.5 µM (inactive)
same,GI50,[37],24.1 µM (inactive)
same,GI50,[38],18.8 µM (inactive)
same,GI50,[39],23.2 µM (inactive)
same,GI50,[42],18.1 µM (inactive)
same,GI50,[43],95.1 µM (inactive)
same,GI50,[44],20 µM (inactive)
same,GI50,[45],16.2 µM (inactive)
same,GI50,[46],17.3 µM (inactive)
same,GI50,[47],24.4 µM (inactive)
same,GI50,[48],18.4 µM (inactive)
same,GI50,[49],26.3 µM (inactive)
same,GI50,[50],20.4 µM (inactive)
same,GI50,[51],26.8 µM (inactive)
same,GI50,[52],20 µM (inactive)
same,GI50,[53],21.7 µM (inactive)
same,GI50,[54],26.4 µM (inactive)
same,GI50,[55],17.7 µM (inactive)
same,GI50,[56],19.1 µM (inactive)
same,GI50,[57],32.3 µM (inactive)
same,GI50,[58],21 µM (inactive)
